What was measured:
[1] = system: freshly isolated Wistar rat glomeruli; settings: Ang II 60 µM, acute application; text b29 words it 'up to'
Description: Sixteen-week Wistar Kyoto male rats were obtained from Charles River and were kept in a light-controlled environment with a 12:12-h light/dark cycle and given free access to water (filtered, RO water) and food (5V75-PicoLab Verified 75 IF, LabDiet, USA).
Briefly, male Wistar rat kidneys were harvested, decapsulated, and used to isolate glomeruli by differential sieving. Freshly isolated glomeruli were collected and stored on ice in a 15-mL tube with a 5% BSA (Sigma-Aldrich, # A8327)/RPMI-1640 solution with non-permeable 150 kDa TRITC-dextran (1 mg/mL, TdB Labs, #TD150, Uppsala, Sweden). […] Glomeruli were attached to poly-L-lysine covered glass-bottom dishes and covered with the extracellular solution containing 150 kDa TRITC dextran. Z-stacks with 18 consecutive focal planes (3 µm each) were collected every 1 min, allowing glomeruli volume reconstruction. Output files were imported into Imaris Software (Oxford Bitplane, version 9.6.1), reconstructed in 3D, and processed to calculate glomerular volume.

mesangial cells = settings: cited from earlier work
platelets = settings: cited from earlier work
endothelial cells = settings: cited from earlier work
[2] = system: vascular smooth muscle cells; settings: cited from earlier work
monocytes = settings: cited from earlier work
neuronal cells = settings: cited from earlier work
MCs = settings: cited from earlier work

Substance	Glomerular volume reduction [1] [%]	Concentration at which significant Ca2+ response was detected (mesangial cells)	Concentration at which significant Ca2+ response was detected (molar equivalent) (mesangial cells; equivalent of 0.1 U/mL)	Thrombin concentration sufficient to induce Ca2+ mobilization (platelets) [U/mL]	Thrombin concentration required to activate endothelial cells (endothelial cells) [U/mL]	Thrombin concentration required to activate vascular smooth muscle cells [2] [U/mL]	Thrombin concentration required to activate intracellular Ca2+ signaling (monocytes)	Thrombin concentration required to activate intracellular Ca2+ signaling (neuronal cells)	Effect on MC proliferation and synthesis (MCs)
Angiotensin II [Ang II]	20.7								
thrombin		around 0.1 U/mL	approximately 1 nM	0.1 to 1	0.5 to 2	0.5 to 2	1-5 U/mL	1-5 U/mL	stimulate MC proliferation and synthesis of prostaglandins, nitric oxide, endothelin-1, extracellular matrix components, and chemokines
